Assay results as given in patent US20250171495A1, “MUTLI-TARGETED SERINE PROTEASE INHIBITORS FOR TREATMENT OF CANCER AND VIRAL INFECTION” (Washington University, priority 2023, published 2025).
Values joined by “and” are separate entries in the source; they are usually repeats but may differ in a detail not shown here. Identical values can stand only once.

Key:
Assay type in all cases: biochemical
hepsin = target: T1, hepsin (Homo sapiens, UniProt P05981); assay: HyCoSuL P4-P2 substrate specificity screening, hepsin; settings: for P2 Position Substrate Activity for hepsin (percent substrate cleavage/proteolysis): residue fixed at P2 position; for P3 Position Substrate Activity for hepsin (percent substrate cleavage/proteolysis): residue fixed at P3 position; for P4 Position Various Amino Acids Substrate Activity, hepsin (percent substrate proteolysis/cleavage): residue fixed at P4 position of substrate library; for P3 Position Various Amino Acids Substrate Activity, hepsin (percent substrate cleavage/proteolysis): residue fixed at P3 position of substrate library
T1 construct: purchased R&D Systems 4776-SE-010

matriptase = target: T2, matriptase (Homo sapiens, UniProt Q9Y5Y6); assay: HyCoSuL P4-P2 substrate specificity screening, matriptase; settings: for P2 Position Substrate Activity for matriptase (percent substrate cleavage/proteolysis): residue fixed at P2 position; for P3 Position Various Amino Acids Substrate Activity, matriptase (percent substrate cleavage/proteolysis): residue fixed at P3 position of substrate library; for P3 Position Substrate Activity for matriptase (percent substrate cleavage/proteolysis): residue fixed at P3 position; for P4 Position Various Amino Acids Substrate Activity, matriptase (percent substrate proteolysis/cleavage): residue fixed at P4 position of substrate library
T2 sequence (Q9Y5Y6 1-855): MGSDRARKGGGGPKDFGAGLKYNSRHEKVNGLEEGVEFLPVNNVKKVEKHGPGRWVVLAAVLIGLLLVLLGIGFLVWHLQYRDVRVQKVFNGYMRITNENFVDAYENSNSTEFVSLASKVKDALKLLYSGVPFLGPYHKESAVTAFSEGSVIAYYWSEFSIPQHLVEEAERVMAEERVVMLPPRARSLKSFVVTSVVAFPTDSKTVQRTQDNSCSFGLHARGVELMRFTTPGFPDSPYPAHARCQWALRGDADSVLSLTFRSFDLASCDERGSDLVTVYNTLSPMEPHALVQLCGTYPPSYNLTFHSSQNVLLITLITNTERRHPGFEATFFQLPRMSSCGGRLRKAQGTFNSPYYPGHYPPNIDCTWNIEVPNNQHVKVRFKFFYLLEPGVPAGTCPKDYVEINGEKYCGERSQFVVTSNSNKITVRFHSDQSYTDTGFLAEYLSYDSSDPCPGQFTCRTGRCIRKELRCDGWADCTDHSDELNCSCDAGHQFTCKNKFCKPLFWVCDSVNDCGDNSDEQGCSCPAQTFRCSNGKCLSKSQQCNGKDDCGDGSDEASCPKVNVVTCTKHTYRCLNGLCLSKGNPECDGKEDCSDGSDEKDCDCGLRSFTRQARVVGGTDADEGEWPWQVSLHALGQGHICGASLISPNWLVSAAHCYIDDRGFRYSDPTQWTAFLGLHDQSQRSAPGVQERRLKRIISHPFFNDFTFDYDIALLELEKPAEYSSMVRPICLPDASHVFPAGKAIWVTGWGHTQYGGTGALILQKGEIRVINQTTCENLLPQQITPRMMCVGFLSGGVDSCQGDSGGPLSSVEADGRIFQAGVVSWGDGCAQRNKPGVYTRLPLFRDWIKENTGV

TMPRSS2 = TMPRSS2 (Homo sapiens, UniProt O15393); assay: PS-SCL / HyCoSuL substrate specificity screening, TMPRSS2; settings: for P2 Position Substrate Activity for TMPRSS2 (percent substrate cleavage/proteolysis): residue fixed at P2 position of substrate library; for P3 Position Substrate Activity for TMPRSS2 (percent substrate cleavage/proteolysis) / P3 Position Various Amino Acids Substrate Activity, TMPRSS2 (percent substrate cleavage/proteolysis): residue fixed at P3 position of substrate library
HGFA = target: T3, HGFA (Homo sapiens, UniProt Q04756); assay: HyCoSuL P4-P2 substrate specificity screening, HGFA; settings: for P2 Position Substrate Activity for HGFA (percent substrate cleavage/proteolysis): residue fixed at P2 position; for P3 Position Substrate Activity for HGFA (percent substrate cleavage/proteolysis): residue fixed at P3 position; for P4 Position Various Amino Acids Substrate Activity, HGFA (percent substrate proteolysis/cleavage): residue fixed at P4 position of substrate library; for P3 Position Various Amino Acids Substrate Activity, HGFA (percent substrate cleavage/proteolysis): residue fixed at P3 position of substrate library
T3 sequence (Q04756 373-655): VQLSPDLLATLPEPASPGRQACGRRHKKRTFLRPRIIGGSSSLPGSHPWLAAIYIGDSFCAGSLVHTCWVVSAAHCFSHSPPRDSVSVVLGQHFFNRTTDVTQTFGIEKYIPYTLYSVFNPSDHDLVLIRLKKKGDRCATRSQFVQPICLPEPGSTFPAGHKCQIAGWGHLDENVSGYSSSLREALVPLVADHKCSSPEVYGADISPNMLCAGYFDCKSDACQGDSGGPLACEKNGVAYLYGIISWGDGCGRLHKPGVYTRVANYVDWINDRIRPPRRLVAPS

[1] = P1-Arg HyCoSuL, 100 μM, best recognized amino acid set to 100%
[2] = best recognized amino acid set to 100%
[3] = residue fixed at P4 position of substrate library
[4] = residue fixed at P4 position, P1-Arg HyCoSuL, 100 μM, best recognized amino acid set to 100%

TMPRSS2, sequence (O15393 whole entry): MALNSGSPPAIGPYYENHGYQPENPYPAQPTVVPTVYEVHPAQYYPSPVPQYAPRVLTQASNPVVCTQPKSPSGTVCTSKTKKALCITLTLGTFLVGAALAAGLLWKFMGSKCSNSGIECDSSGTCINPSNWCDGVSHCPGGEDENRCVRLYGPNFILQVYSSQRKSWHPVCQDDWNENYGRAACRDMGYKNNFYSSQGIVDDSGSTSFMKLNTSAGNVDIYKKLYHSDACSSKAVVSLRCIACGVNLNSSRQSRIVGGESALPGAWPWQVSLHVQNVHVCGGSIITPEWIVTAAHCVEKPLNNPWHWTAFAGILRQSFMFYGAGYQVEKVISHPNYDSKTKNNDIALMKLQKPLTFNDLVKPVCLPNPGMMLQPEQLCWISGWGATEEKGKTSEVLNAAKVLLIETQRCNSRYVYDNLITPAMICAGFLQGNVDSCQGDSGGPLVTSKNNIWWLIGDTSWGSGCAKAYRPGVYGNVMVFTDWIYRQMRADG
T1 sequence (P05981 163-417 limits assumed): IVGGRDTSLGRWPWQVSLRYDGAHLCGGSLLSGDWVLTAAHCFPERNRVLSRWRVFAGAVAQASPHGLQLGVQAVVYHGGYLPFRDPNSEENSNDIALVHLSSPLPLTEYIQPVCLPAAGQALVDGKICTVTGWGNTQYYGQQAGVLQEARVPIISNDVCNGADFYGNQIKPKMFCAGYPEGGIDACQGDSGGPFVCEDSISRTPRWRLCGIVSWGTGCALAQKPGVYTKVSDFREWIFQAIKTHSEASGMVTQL
T1 sequence (P05981 1-162 partner limits assumed): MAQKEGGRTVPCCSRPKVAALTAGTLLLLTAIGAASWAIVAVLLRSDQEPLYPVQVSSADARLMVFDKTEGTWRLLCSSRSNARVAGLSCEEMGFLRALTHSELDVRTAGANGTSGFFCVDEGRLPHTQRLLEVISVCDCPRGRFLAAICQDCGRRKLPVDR

Row | P2 Position Substrate Activity for hepsin (percent substrate cleavage/proteolysis) (hepsin; [1]) | P3 Position Substrate Activity for hepsin (percent substrate cleavage/proteolysis) (hepsin; [1]) | P4 Position Various Amino Acids Substrate Activity, hepsin (percent substrate proteolysis/cleavage) (hepsin) | P2 Position Substrate Activity for matriptase (percent substrate cleavage/proteolysis) (matriptase; [1]) | P3 Position Various Amino Acids Substrate Activity, matriptase (percent substrate cleavage/proteolysis) (matriptase) | P3 Position Substrate Activity for matriptase (percent substrate cleavage/proteolysis) (matriptase; [1]) | P4 Position Various Amino Acids Substrate Activity, matriptase (percent substrate proteolysis/cleavage) (matriptase) | P2 Position Substrate Activity for TMPRSS2 (percent substrate cleavage/proteolysis) (TMPRSS2; [2]) | P3 Position Substrate Activity for TMPRSS2 (percent substrate cleavage/proteolysis) (TMPRSS2; [2]) | P4 Position Various Amino Acids Substrate Activity, TMPRSS2 (percent substrate proteolysis/cleavage) (TMPRSS2; [3]) | P2 Position Substrate Activity for HGFA (percent substrate cleavage/proteolysis) (HGFA; [1]) | P3 Position Substrate Activity for HGFA (percent substrate cleavage/proteolysis) (HGFA; [1]) | P4 Position Various Amino Acids Substrate Activity, HGFA (percent substrate proteolysis/cleavage) (HGFA) | P3 Position Various Amino Acids Substrate Activity, hepsin (percent substrate cleavage/proteolysis) (hepsin) | P3 Position Various Amino Acids Substrate Activity, TMPRSS2 (percent substrate cleavage/proteolysis) (TMPRSS2) | P3 Position Various Amino Acids Substrate Activity, HGFA (percent substrate cleavage/proteolysis) (HGFA) | P4 Position Substrate Activity for hepsin (percent substrate cleavage/proteolysis) (hepsin; [4]) | P4 Position Substrate Activity for matriptase (percent substrate cleavage/proteolysis) (matriptase; [4]) | P4 Position Substrate Activity for TMPRSS2 (percent substrate cleavage/proteolysis) (TMPRSS2; residue fixed at P4 position of substrate library, best recognized amino acid set to 100%) | P4 Position Substrate Activity for HGFA (percent substrate cleavage/proteolysis) (HGFA; [4]) | Substance
1 | 25.22% |  | 30.80% | 39% | 19% |  | 14% | 95.60% |  | 31.64% | 16.60% |  | 9.42% | 2.91% | 14.74% | 13.51% |  |  |  |  | L-Phe
2 | 18.40% |  | 31.63% | 28% | 33% |  | 19% | 19.86% |  | 20.12% | 3.24% |  | 7.04% | 38.70% | 35.95% | 14.57% |  |  |  |  | L-Ser
3 | 70.75% |  | 29.29% | 15% | 31% |  | 14% | 22.02% |  | 21.84% | 8.87% |  | 7.67% | 35.34% | 39.80% | 14.51% |  |  |  |  | L-Thr
4 | 6.00% |  | 6.82% | 32% | 11% |  | 9% | 33.05% |  | 24.62% | 4.04% |  | 8.78% | 0.00% | 22.96% | 17.50% |  |  |  |  | L-Trp

The remaining lines, values behind:

Row | Substance | P2 Position Substrate Activity for hepsin (percent substrate cleavage/proteolysis) (hepsin; [1]) | P3 Position Substrate Activity for hepsin (percent substrate cleavage/proteolysis) (hepsin; [1]) | P4 Position Various Amino Acids Substrate Activity, hepsin (percent substrate proteolysis/cleavage) (hepsin) | P2 Position Substrate Activity for matriptase (percent substrate cleavage/proteolysis) (matriptase; [1]) | P3 Position Various Amino Acids Substrate Activity, matriptase (percent substrate cleavage/proteolysis) (matriptase) | P3 Position Substrate Activity for matriptase (percent substrate cleavage/proteolysis) (matriptase; [1]) | P4 Position Various Amino Acids Substrate Activity, matriptase (percent substrate proteolysis/cleavage) (matriptase) | P2 Position Substrate Activity for TMPRSS2 (percent substrate cleavage/proteolysis) (TMPRSS2; [2]) | P3 Position Substrate Activity for TMPRSS2 (percent substrate cleavage/proteolysis) (TMPRSS2; [2]) | P4 Position Various Amino Acids Substrate Activity, TMPRSS2 (percent substrate proteolysis/cleavage) (TMPRSS2; [3]) | P2 Position Substrate Activity for HGFA (percent substrate cleavage/proteolysis) (HGFA; [1]) | P3 Position Substrate Activity for HGFA (percent substrate cleavage/proteolysis) (HGFA; [1]) | P4 Position Various Amino Acids Substrate Activity, HGFA (percent substrate proteolysis/cleavage) (HGFA) | P3 Position Various Amino Acids Substrate Activity, hepsin (percent substrate cleavage/proteolysis) (hepsin) | P3 Position Various Amino Acids Substrate Activity, TMPRSS2 (percent substrate cleavage/proteolysis) (TMPRSS2) | P3 Position Various Amino Acids Substrate Activity, HGFA (percent substrate cleavage/proteolysis) (HGFA) | P4 Position Substrate Activity for hepsin (percent substrate cleavage/proteolysis) (hepsin; [4]) | P4 Position Substrate Activity for matriptase (percent substrate cleavage/proteolysis) (matriptase; [4]) | P4 Position Substrate Activity for TMPRSS2 (percent substrate cleavage/proteolysis) (TMPRSS2; residue fixed at P4 position of substrate library, best recognized amino acid set to 100%) | P4 Position Substrate Activity for HGFA (percent substrate cleavage/proteolysis) (HGFA; [4])
5 | L-Met(O) | 11.40% | 68.16% | 22.86% | 1% | 52% | 51.68% | 10% | 0.00% | 57.41% | 24.40% | 1.68% | 16.63% | 6.64% |  |  |  |  |  |  | 
6 | L-Nle | 62.04% |  | 40.93% | 13% | 34% |  | 34% | 11.80% |  | 56.06% | 45.52% |  | 11.76% | 24.09% | 38.11% | 19.15% |  |  |  | 
7 | L-Nva | 58.40% |  | 41.99% | 11% | 25% |  | 30% | 13.88% |  | 54.45% | 39.80% |  | 11.78% | 25.85% | 38.62% | 17.60% |  |  |  | 
8 | L-Orn | 78.48% | 79.70% |  | 4% | 74% | 73.75% and 62.39% | 82% | 0.00% | 22.76% |  | 0.00% | 54.04% |  |  |  |  | 84.52% | 82.42% | 12.33% | 20.23%
9 | L-Pro | 13.10% |  | 56.00% | 22% | 2% |  | 40% | 16.87% |  | 40.11% | 2.21% |  | 10.30% | 2.09% | 0.00% | 2.04% |  |  |  | 
